Results published in patent US5719287A, “Intermediates for inhibitors of HIV protease and method of preparation thereof” (Eli Lilly and Company, priority 1995, dated 1998).

Assays:
[1] = molecular target: T1, HIV-1 protease (Human immunodeficiency virus type 1 group M subtype B, UniProt P04585); assay: biochemical; settings: read-out: Fluorescence Assay IC50 (converted)
T1 construct: Purified HIV-1 protease was obtained as described below; made in house; host or cells: E. coli K12 L507/pHP10D (NRRL B-18560)
Outline: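 Purified recombinant HIV-1 protease from E. coli preincubated 1 h at room temperature with compound in 20% aqueous DMSO, then biotin-peptide-FITC substrate added in MES-ALB buffer for 16 h at room temperature. Cleavage measured by avidin-bead capture, fluorescence ex 485/em 535 nm.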

[2] = molecular target: T1, HIV-1 protease; assay: Western Blot Analysis of HIV Protease Inhibition Assay (HIV-1 protease produced in E. coli, processing of gag polyprotein Pr48^gag); type: biochemical; settings: yield of p17 from gag polyprotein; 30 min preincubation at room temperature, one hour at 37° C.
Protocol: The compounds of the present invention were also tested for their ability to block HIV protease processing of Pr48^gag (a recombinant polyprotein containing p 17, p24 and p7).
A. Culture of E. coli K12 L507/DHP10D
Lyophils of E. coli K12 L507/pHP10D are obtained from the Northern Regional Research Laboratory, Peoria, Ill. 61604, under the accession number NRRL B-18560 (deposited Nov. 14, 1989). The lyophils are decanted into tubes containing 10 ml LB medium (10 g Bacto-tryptone, 5 g Bacto-yeast extract, and 10 g NaCl per liter; pH is adjusted to 7.5) and incubated at 32° C., overnight.
A small portion of the overnight culture was placed on LB-agar (LB medium with 15 g/l Bacto-agar) plates containing 12.5 μg/ml tetracycline in a manner so as to obtain a single colony isolate of E. coli K12 L507/pHP10D.The single colony obtained was inoculated into 10 ml of LB medium containing 12.5 μg/ml tetracycline and incubated overnight at 32° C. with vigorous shaking. The 10 ml overnight culture was inoculated into LB medium containing 12.5 μg/ml tetracycline and incubated at 32° C. with vigorous shaking until the culture reached mid-log phase.
B. Culture of E. coli K12 L507/pHGAG
Lyophils of E. coli K12 L507/pHGAG are obtained from the NRRL under the accession number NRRL B-18561 (deposited Nov. 14, 1989). A purified colony of E. coli K 12 L507/pHGAG was isolated, and used as an inoculum for a culture which was grown to mid-log phase in substantial accordance with the teaching of Step A above for E. Coli K12 L507/pHP10D.
C. Preparation of Protease and gag fractions
A culture of E. coli K12 L507/pHP10D was grown to mid-log phase at 32° C. in LB media containing 12.5 μg/ml tetracycline. The cultivation temperature was quickly elevated to 40° C. to induce gene expression, and the cells were allowed to grow for 2.5 hours at this temperature before the culture was quickly chilled on ice. The cells were centrifuged and the cell pellet was resuspended in 20 ml 50 mmol MES buffer (pH 6.0) containing 1 mmol EDTA, 1 mmol DTT, 1 mmol PMSF, and 10% glycerol (Buffer A). Cells were lysed by sonication using a Fischer Model 300 Dismembrator and a microtip probe. […] Enzymatic activity was measured by HPLC using the synthetic peptide SQNYPIV as described in Margolin et al., Biochem. Biophys. Res. Commun., 167, 554-560 (1990); the production of the pl peptide (SQNY) was measured.
Active fractions were pooled, made 1.2M in ammonium sulfate, and applied to a hexyl agarose column (2.0×18 cm) equilibrated in Buffer A containing 1.2M ammonium sulfate. The sample, in 125 ml (1.85 mg/ml), was loaded at a flow rate of 1 ml/min at 4° C. […] The column was then washed isocratically in Buffer A for 120 min. Active fractions were pooled, concentrated to 10 ml using an Amicon stirred cell with a YM-10 membrane, and applied at 1 ml/min to a MonoS cation exchange column (1.0×10 cm) equilibrated in Buffer A. After washing isocratically for 30 min, protease was eluted using a linear gradient of 0-0.45M NaCl in Buffer A over 40 min followed by an isocratic wash with Buffer A containing 0.45M NaCl over 30 min. Chromatography was performed at 25° C.
Pooled active fractions were concentrated to 200 ul using an Amicon stirred cell and a YM-10 membrane, and the protease was then applied to a Superose 6 size exclusion column equilibrated in Buffer A containing 0.1M NaCl. The column was washed isocratically in this buffer at a flow rate of 0.5 ml/min.
QAE-Sepharose, and hexyl agarose were purchased from Sigma Chemical Company. Superose 6 and MonoS were products of Pharmacia. Buffers and reagents were obtained from Sigma.
In an analogous manner, a culture of E. coli K12 507/pHGAG was grown to mid-log phase at 32° C. then shifted to 40° C. for about 4 to 5 hours. The culture was chilled on ice and centrifuged, then the pellet was resuspended in 8 ml lysis buffer containing 5 mg/ml lysozyme.

[3] = purified HIV-1 protease, MES-ALB buffer pH 5.5, 1 h preincubation, 16 h with substrate, room temperature, IC50 values for Examples 2-70 are standardized relative to Ex 1

| Compound | IC50 [1] [nM] | IC50 [2] [nM] | IC50 [1, 3] [nM] |
| --- | --- | --- | --- |
| Cc1cccc(C[C@@H](O)[C@H](Cc2ccccc2)NC(=O)[C@H](CC(N)=O)NC(=O)c2ccc3ccccc3n2)c1C(=O)NC(C)(C)C [Example 3, [1S-(1R*, 4R*, 5S*)]-N-(1-(2-amino-2-oxoethyl)-2-oxo-3-aza-4-phenylmethyl-5-hydroxy-6-(2-(1-t-butylamino-1-oxomethyl)-3-methylphenyl)hexyl)-2-quinolinyl carboxamide] | 28.9 | 60 |  |
| CC(C)(C)NC(=O)c1c(C[C@@H](O)[C@H](Cc2ccccc2)NC(=O)[C@H](CC(N)=O)NC(=O)c2ccc3ccccc3n2)ccc2ccccc12 [Example 4, [1S-(1R*, 4R*, 5S*)]-N-(1-(2-amino-2-oxoethyl)-2-oxo-3-aza-4-phenylmethyl-5-hydroxy-6-(1-(1-t-butylamino-1-oxomethyl)-2-naphthyl)hexyl)-2-quinolinyl carboxamide] | 4.4 | 2.7 |  |
| CC(C)[C@H](NC(=O)c1ccc2ccccc2n1)C(=O)N[C@@H](Cc1ccccc1)[C@H](O)Cc1ccccc1C(=O)NC(C)(C)C [Example 16, [1S-(1R*, 4R*, 5S*)]-N-(1-(2-propyl)-2-oxo-3-aza-4-phenylmethyl-5-hydroxy-6-(2-(1-t-butylamino-1-oxomethyl)phenyl)hexyl)-2-quinolinyl carboxamide] | 57.2 | 1 |  |
| CC(C)(C)NC(=O)c1ccccc1C[C@@H](O)[C@H](Cc1ccccc1)NC(=O)[C@H](Cc1cnc[nH]1)NC(=O)c1ccc2ccccc2n1 [Example 17, [1S-(1R*, 4R*. 5S*)]-N-(1-(4-imidazolylmethyl)-2-oxo-3-aza-4-phenylmethyl-5-hydroxy-6-(2-(1-t-butylamino-1-oxomethyl)phenyl)hexyl)-2-quinolinyl carboxamide] | 1.9 | 0.5 |  |
| Cc1ccc(C[C@@H](O)[C@H](Cc2ccccc2)NC(=O)[C@H](CC(N)=O)NC(=O)c2ccc3ccccc3n2)c(C(=O)NC(C)(C)C)c1 [Example 2, [1S-(1R*, 4R*, 5S*)]-N-(1-(2-amino-2-oxoethyl)-2-oxo-3-aza-4-phenylmethyl-5-hydroxy-6-(2-(1-t-butylamino-1-oxomethyl)-4-methylphenyl)hexyl)-2-quinolinyl carboxamide] |  | 50 | 3.37 |
| CCC(C)(C)NC(=O)c1ccccc1C[C@@H](O)[C@H](Cc1ccccc1)NC(=O)[C@H](CC(N)=O)NC(=O)c1ccc2ccccc2n1 [Example 8, [1S-(1R*, 4R*, 5S*)]-N-(1-(2-amino-2-oxoethyl)-2-oxo-3-aza-4-phenylmethyl-5-hydroxy-6-(2-(1-(1.1-dimethylpropylamino)-1-oxomethyl)phenyl)hexyl)-2-quinolinyl carboxamide] | 4.81 | 1.5 |  |
| CC(C)[C@H](NC(=O)c1ccc2ccccc2c1)C(=O)N[C@@H](Cc1ccccc1)[C@H](O)Cc1ccccc1C(=O)NC(C)(C)C [Example 35] |  |  | 131 |
| CC(C)(C)NC(=O)c1ccccc1C[C@@H](O)[C@H](Cc1ccccc1)NC(=O)[C@H](CCC(=O)O)NC(=O)c1ccc2ccccc2n1 [Example 44, [1S-(1R*, 4R*, 5S*)]-N-(1-(3-hydroxy-3-oxopropyl)-2-oxo-3-aza-4-phenylmethyl-5-hydroxy-6-(2-(1-t-butylamino-1-oxomethyl)phenyl)hexyl)-2-quinolinyl carboxamide] | 2.08 |  |  |
| CC(C)(C)NC(=O)c1ccccc1C[C@@H](O)[C@H](Cc1ccc(O)cc1)NC(=O)[C@H](CC(N)=O)NC(=O)c1ccc2ccccc2n1 [Example 10, [1S-(1R*, 4R*. 5S*) ]-N-(1-(2-amino-2-oxoethyl)-2-oxo-3-aza-4-(4-hydroxyphenyl)methyl-5-hydroxy-6-(2-(1-t-butylamino-1-oxomethyl)phenyl)hexyl)-2-quinolinyl carboxamide] | 94.3 |  |  |

Continued, values first:

| IC50 [1] [nM] | IC50 [2] [nM] | IC50 [1, 3] [nM] | Compound |
| --- | --- | --- | --- |
| 142 | 100 |  | CC(C)(C)NC(=O)c1ccccc1C[C@@H](O)[C@H](Cc1ccccc1)NC(=O)[C@H](CC(N)=O)NC(=O)c1nc2ccccc2[nH]1 [Example 14, [1S-(1R*, 4R*, 5S*)]-N-(1-(2-amino-2-oxoethyl)-2-oxo-3-aza-4-phenylmethyl-5-hydroxy-6-(2-(1-t-butylamino-1-oxomethyl)phenyl)hexyl)-2-benzimidazolyl carboxamide] |
|  | 9 | 13.1 | CC(C)(C)NC(=O)c1ccccc1C[C@@H](O)[C@H](Cc1ccccc1)NC(=O)[C@H](CC(N)=O)NC(=O)c1nccc2ccccc12 [Example 13] |
|  | 1.6 | 4.23 | CC(C)(C)NC(=O)c1ccccc1C[C@@H](O)[C@H](Cc1ccccc1)NC(=O)[C@H](CC(N)=O)NC(=O)COc1cccc2ccccc12 [Example 15, [2R-(2R*, 3S*, 6S*)]-N-t-butyl-2-(2-hydroxy-3-phenylmethyl-4,7-diaza-5,8,-dioxo-6-(2-amino-2-oxoethyl)-9-(naphthyloxy)nonyl)benzamide] |
| 10.7 |  |  | CC(C)(C)NC(=O)c1ccccc1C[C@@H](O)[C@H](Cc1ccccc1)NC(=O)[C@H](CC(N)=O)NC(=O)c1cc2ccccc2s1 [Example 22, [1S-(1R*, 4R*, 5S*)]-N-(1-(2-amino-2-oxoethyl)-2-oxo-3-aza-4-phenylmethyl-5-hydroxy-6-(2-(1-t-butylamino-1-oxomethyl)phenyl)hexyl)-2-benzo[b]thienyl carboxamide] |
| 1.26 |  |  | CC(C)(C)NC(=O)c1ccccc1C[C@@H](O)[C@H](Cc1ccccc1)NC(=O)[C@H](CC(N)=O)NC(=O)c1ccc2cc(Cl)ccc2n1 [Example 55, [1S-(1R*, 4R*, 5S*)]-N-(1-(2-amino-2-oxoethyl)-2-oxo-3-aza-4-phenylmethyl-5-hydroxy-6-(2-(1-t-butylamino-1-oxomethyl)phenyl)hexyl)-6-chloroquinolin-2-yl carboxamide] |
